Measurements as given in patent US11524014B2, “Pharmaceutical formulations and systems for delivery of an androgenic agent and an aromatase inhibitor with sustained multi-phasic release profiles and methods of use” (Havah Therapeutics Pty Ltd., priority 2019, dated 2022).
“And” between values parts separate entries of the source, which are not always exact repeats. Equal entries are not always repeated. Where two headings read alike, the source gives them in different places.

Experiments:
[1] = oral anastrozole; cited from earlier work
clinical = conditions: female, human, in vivo; for half-life: t1/2, arithmetic mean (terminal half-life)
Procedure: Pre-menopausal women with high Mammographic Breast Density (MBD) was selected for the study. Following the successful screening, participants came to the Wellend Clinic South Australia for dosing. The participants were to be dosed while in the luteal phase of their menstrual cycle to avoid the highly changing hormonal environment of the follicular phase. Following insertion of the implant, PK blood sampling was carried out for a duration of three months. Briefly, samples were taken repeatedly on the day of dosing, daily during the first week, weekly for the next four weeks and every second week during the last eight weeks, for a total sampling period of three months. After assessments had been completed on the last day of assessments, Day 85, the trial concluded.
The sampling schedule was revised with the addition of one blood sample (at 6 hours post-dose), and no adjustment of the timing of existing time points. The duration of sampling was not extended.
In summary, following dosing on Day 1, blood samples were taken pre-dose (within one hour of dosing) and at 1, 2, 4, 6, 8 and 12 hours. Participants returned for a blood sample to be taken at 9 am in the morning on Days 2, 3, 4, 5, 8, 15, 22, 29, 43, 57, 71 and 85.
A total of 11 subjects were dosed and included in the safety analysis set. Eleven subjects were included in the PK analysis set. Women were aged between 35 and 55 years of age, Body Mass Index (BMI) range of 20-30 kg/m^2.

[2] = Population pharmacokinetic modelling of anastrozole from the Example 1 trial; format: in vivo, human
Procedure: Data in these figures are presented as mean+/−standard deviation. […] The percentage change from baseline was calculated for the average volume and plotted against time in months. […] In FIG. 8A, the data on the X axis is plotted in time (hours) after transplantation. In FIG. 8B the X axis is on a log scale. In FIGS. 8A-B, the open circles equal observed data, the black line equals median PK profile, and the dashed dark grey line equals lower limit of quantification (0.1 ng/mL).
One and two compartment models were fitted to the data. Several absorption models were tested such as first and zero order, mixed order, as well as transit compartments. Model selection was performed on the basis of statistical criteria (objective function) as well as visual inspection of diagnostic plots. […] Between-subject variability (BSV) was included on apparent clearance (CL/F), apparent volume of distribution for the central compartment (Vc/F) and the first-order absorption rate constant (KA). A proportional error model was used to describe residual unexplained variability (RUV).

IL-6 = conditions: female breast cells treated with testosterone (Guhl, 2012); cited from earlier work
[3] = two-compartment model with dual input, T+Ai implant, n=11

CC(C)(C#N)c1cc(Cn2cncn2)cc(C(C)(C)C#N)c1 [Anastrozole, 2,2′-[5-(1H-1,2,4-triazol-1-ylmethyl)-1,3-phenylene]bis(2-methylpropanenitrile)]
half-life [1]: 48 h | concentration at 12 weeks (clinical): < 0.1 ng/mL | Tmax (clinical; sc, Tmax, median, single s.c. T+Ai implant 80 mg/4 mg, women, n=11, anastrozole in plasma, testosterone in serum): 48.6 h | Tmax (clinical; sc, median Tmax post-dose, plasma anastrozole after single s.c. T+Ai implant, range 1-3 days): 48 h | half-life (clinical; sc): 336 h | t1/2, arithmetic mean (terminal half-life) (female, human, in vivo, sc): 326 h | CL/F, arithmetic mean (NCA) (human, in vivo, sc): 1.88 L/h | Fraction absorbed via second input ([2]; fixed in the model (FIX)): 0.5 FIX | Absorbtion rate constant (ka) first input, estimated value (% RSE) [2, 3]: 0.119 (20.6) /hr | Absorbtion rate constant (ka) second input, estimated value (% RSE) [2, 3]: 0.148 (20.5) /hr | Apparent central volume of distribution (Vc/F), estimated value (% RSE) [2, 3]: 672 (3.0) L | Apparent clearance (CL/F), estimated value (% RSE) [2, 3]: 1.77 L/hr and 1.77 (6.9) L/hr | Apparent peripheral volume of distribution (Vp/F), estimated value (% RSE) [2, 3]: 106 (29.8) L | Inter-compartmental clearance (Q/F), estimated value (% RSE) [2, 3]: 0.97 (57.7) L/hr | Lagged time for second input, estimated value (% RSE) [2, 3]: 3.77 (9.7) h

C[C@]12CC[C@H]3[C@@H](CCC4=CC(=O)CC[C@@]43C)[C@@H]1CC[C@@H]2O [Testosterone, testosterone]
Tmax (clinical; sc): 8 h | Cmax (clinical; sc, Cmax, arithmetic mean, single s.c. T+Ai implant 80 mg/4 mg, women, n=11, anastrozole in plasma, testosterone in serum): 4.1 ng/mL | half-life (clinical; sc, single s.c. T+Ai implant 80 mg/4 mg, women, n=11, anastrozole in plasma, testosterone in serum): 1030 h | time of second lower serum peak (serum testosterone after single s.c. T+Ai implant): 2-3 weeks | Cmax, arithmetic mean (single s.c. T+Ai implant 80 mg/4 mg, women, n=11, anastrozole in plasma, testosterone in serum): 4.08 ng/mL | reduction of IL-6 levels (IL-6): 53%

C[C@]12CCC(=O)C[C@@H]1CC[C@@H]1[C@@H]2CC[C@]2(C)[C@@H](O)CC[C@@H]12 [dihydrotestosterone, 5 alpha dihydrotestosterone]
Tmax (clinical; Tmax post-dose, serum dihydrotestosterone, participants with measurable maximal values): 48 to 72 h | serum level measurability (serum dihydrotestosterone after single s.c. T+Ai implant): not measurable in most samples
